Experimental data reported in US20030190334A1, “Low dose liquid entecavir formulations and use” (priority 2002, published 2003).

Experiment: Reaction of entecavir with sweetener or flavoring agent that contains aldehyde and/or ketone groups
Assay type: physicochemical
Source text: While entecavir is potent, it is also extremely bitter. To combat the bitterness, a sweetener is generally used. However, entecavir has shown a tendency to react with commonly used sweeteners, such as sucrose, creating stability concerns. Entecavir has a primary amine group in its structure that has the propensity to react with any sweetener or flavoring agent that contains aldehyde and/or ketone groups.

For `C=C1[C@H](CO)[C@@H](O)C[C@@H]1n1cnc2c(=O)[nH]c(N)nc21` [Entecavir, [1S-(1α,3α,4β)]-2-amino-1,9-dihydro-9-[4-hydroxy-3-(hydroxymethyl)-2-methylenecyclopentyl]-6H-purin-6-one], the “reaction with sweetener or flavoring agent that contains aldehyde and/or ketone groups” value (pH 5 to 7) was “minimized” and the “reaction with sweetener or flavoring agent that contains aldehyde and/or ketone groups” value (weakly acidic pH (pH 3 to 4)) was “more pronounced”.
